From paper PMC8152782, “Synthesis and evaluation of bis(imino)anthracene derivatives as G-quadruplex ligands” (RSC Medicinal Chemistry, 2021)
pIC50: −log10 of the molar value. Read-outs that look alike come from different tables or passages of the source.

Columns and labels:
[1] = system: d(TTGGGTT)4; assay: NMR titration of ligands with G-quadruplex oligonucleotide; format: binding; details: for Difference from 11.55 ppm (ppm) G3NH: 1H NMR chemical shift difference of G-quadruplex peak G3NH on ligand addition; for Difference from 11.22 ppm (ppm) G4NH: 1H NMR chemical shift difference of G-quadruplex peak G4NH on ligand addition; for Difference from 10.86 ppm (ppm) G5NH: 1H NMR chemical shift difference of G-quadruplex peak G5NH on ligand addition; for Difference from 1.58 ppm (ppm) T6CH3: 1H NMR chemical shift difference of G-quadruplex peak T6CH3 on ligand addition; for Difference from 7.23 ppm (ppm) T6H6/8: 1H NMR chemical shift difference of G-quadruplex peak T6H6/8 on ligand addition; for Δδ (ppm): G quadruplex chemical shift difference
Protocol: Compounds 2a–2e were evaluated for G-quadruplex interaction using NMR titration studies with d(TTGGGTT)4 with intercalation comparisons made against doxorubicin and nemorubicin (see ESI ^† S1). […] We also see the peaks for T6 (methyl, aromatic and ribose) shifting to a lower field in accord with the up-field shift of the G5 peaks. This change is explained by the formation of a complex between the ligand and the tetrad formed at G5, which pushes the T6 unit away from the guanine π-system. This intercalation framework agreed with ESI/MS carried out which illustrated a 1 : 1 complex.[17]
Maximum line broadening occurs at a ratio of 1 : 1 drug to G-quadruplex and chemical shift difference changing up to 1 : 1 with the bound and unbound peaks being present. […]
This oligonucleotide solvent mix was then micro-pipetted at a volume of 0.6ml into NMR tubes. Stock solutions of drug compounds in DMSO-d6 were used to make up the molar ratios of 0.125:1, 0.25:1, 0.5:1 and 1:1 drug to oligomer.
A non-active drug (TC102) and DMSO on its own were added as controls to validate that the effects on the spectra were from cytotoxic elements of the drug compounds rather than the effects from DMSO or addition of compound, which could change environment, pH or shimming of NMR instrument.
Spectra were acquired at 300 K using a Bruker Avance III 600MHz FT‐NMR. The WATERNOESY parameter set which executes the pulse sequence noesygppr1d (Bruker, size […]
experiments with a pre-saturation delay during relaxation and mixing time (experiment time:
14 min 44 sec). With this pulse sequence, all non-exchangeable protons are detected in the deuterated D2O/H2O buffer solution. T1 relaxation experiments were acquired for d1 calibration with a modified version of the zggpw5 pulse sequence. With a saturation recovery […]
pulse and using water suppression (Bruker, size of fid 65536/11 F2/F1, […]
(experimental time 1 h 4 min 6 sec).
Bruker Topspin 3.5 pl7 was used for assignment of peaks, manual phasing, baseline correction and manual integration. Manual integration was done to ensure bias and slope was correct and that the integrals were all of the same width. Calculation of chemical shift change done through built in top spin distance measurements between peaks.

[2] = system: HeLa cells; assay: Presto blue cell viability assay, HeLa cells; format: cell-based, Human; details: 24 hour incubation, n = 3
Protocol: Fig. 3 Cell culture, presto blue assay results for 2a, 2b, 2c, 2d, 2e. The data shown is after 24 hour incubation of drug treated HeLa cells. Top chart illustrates mean and SEM of HeLa cell viability at concentrations 100 to 1 μM with positive control (doxorubicin (N2)). In the top charts, values are normalized to negative control (DMSO) at a value of 1 (cell viability). The bottom charts then show the normalized absorbance percentage to the negative control (percentage cell viability) of log inhibitor concentration (multiplied by 10 to account for 1 μM concentration) IC50 values and R squared values are included in the chart. Error bars indicates standard error of mean from n = 3 experiments.
Compounds 2a–2e were subsequently tested against a HeLa cancer cell line (HeLa, American Type Culture Collection (ATCC) (ATCC® CCL-2™)) and they were all prepared in 100, 30, 10 and 1 μM concentrations so that IC50 values could be calculated to establish whether drugs were cytotoxic to HeLa cells (see ESI ^† S1).
Cell suspension (200μl) containing 5000 healthy HeLa cells was seeded in 96-well plates (BDFalcon, Franklin Lakes, NJ) and allowed to attach and stabilize overnight at 37 °C with 5%
CO2. Aspiration of media and rinsing solution was done through pipetting off liquid. Cell viability was then tested with PrestoBlue assay.The presto blue assay was carried out in light sensitive conditions. 100μl of PrestoBlue solution (10% in medium) was added to each well and the plates were incubated at 37 °C for 1 hour. After incubation time, the change in florescence was measured at 570/600 nm using a Spectra Max fluorescence multi-well plate reader.
Dissociation constants were calculated using the curve-fitting software Graphpad Prism 8.
Incubation was done using Thermofisher Steri-Cycle CO2 Incubators and for plate reading Thermofisher Epoch Microplate Spectrophotometer was used. Centrifugation was done by Thermo Scientific Sorvall ST 40 Centrifuge Series.
Commercially available DMEM (Dulbecco’s Modified Eagle Medium- low glucose), including sodium pyruvate and […], 500 mL, was obtained from Gibco, USA. All procedures carried out under sterile conditions, 94 mL of media was taken and the required volume of supplements (10 % Fetal Bovine Serum (FBS), 2 mM/mL Glutamine, 100 U/mL penicillin and 100 µg/mL streptomycin.) were added.
Cell Line and Cell Culture Conditions
Human cervical cancer cell lines (HeLa) were obtained from the American Type Culture Collection (ATCC) (ATCC® CCL-2™). HeLa cells were cultured in Dulbecco’s Eagle Modified Medium low glucose (DMEM) containing 10 % Fetal Bovine Serum (FBS), 2 mM/mL Glutamine, 100 U/mL penicillin and 100 µg/mL streptomycin.
%viable cells = 1 ‒ Number of blue cells x 100 […]
Cryovials were taken from the liquid nitrogen tank and thawed quickly at 37 °C. After that, the cell suspension was transferred to a 15 mL tube and 5 mL of the medium was added into the cell suspension drop by drop with gentle shaking. Centrifugation was done at 1500rpm for 5 min and then supernatant was discarded. After the pellet was resuspended with medium, they were seeded to T-25 flasks. Subsequent to 12 hours incubation, the media was removed and washed with DPBS (1X) (pH:7.4) containing 10 mM sodium dibasic phosphate, 2.7 mM KCI, 2 mM Potassium phosphate,137 mM NaCI. Fresh media was added to the cell monolayer a […]
Assays were carried out using a 96 well plate. This 96-well plate contains one blank, 3 controls which contains cells including a negative control with media, one vehicle control which is DMSO and medium solutions, and a positive control of Doxorubicin (200µL) and media. Drugs were prepared in 100, 30, 10, 1 µM concentrations to make 8 seeded well plates in total which were done in triplicate. All drugs were prepared in DMSO and then diluted in media to give 5µL of DMSO max in 100µM treatments which is controlled by vehicle with a DMSO volume

[3] = system: d(TTGGGTT)4; parameters: method as in PMID 26922833; details: G quadruplex chemical shift difference; cited from earlier work

| SMILES | pIC50 ([2]; Homo sapiens, HeLa, 24 h) | pIC50 [2] | Difference from 11.55 ppm (ppm) G3NH [1] [ppm] | Difference from 11.22 ppm (ppm) G4NH [1] [ppm] | Difference from 10.86 ppm (ppm) G5NH [1] [ppm] | Difference from 1.58 ppm (ppm) T6CH3 [1] [ppm] | Difference from 7.23 ppm (ppm) T6H6/8 [1] [ppm] | Δδ (ppm) [1] [ppm] | Δδ (ppm) [3] [ppm] |
| --- | --- | --- | --- | --- | --- | --- | --- | --- | --- |
| C(=N\Cc1ccc2c(c1)OCO2)/c1c2ccccc2c(/C=N/Cc2ccc3c(c2)OCO3)c2ccccc12 [Compound 2a] | 4.74 |  | −0.04 | −0.08 | −0.2 | 0.09 | 0.17 | 0.2 |  |
| C(=N\CCc1c[nH]c2ccccc12)/c1c2ccccc2c(/C=N/CCc2c[nH]c3ccccc23)c2ccccc12 [Compound 2c] | 4.52 | 4.51 | −0.06 | −0.115 | −0.25 | 0.157 | 0.126 | 0.25 |  |
| COc1cccc2c1C(=O)c1c(O)c3c(c(O)c1C2=O)C[C@@](O)(C(=O)CO)C[C@@H]3O[C@H]1C[C@H](N)[C@H](O)[C@H](C)O1 [Doxorubicin] |  |  |  |  |  |  |  |  | 0.31 |
| COc1cccc2c1C(=O)c1c(O)c3c(c(O)c1C2=O)C[C@@](O)(C(=O)CO)C[C@@H]3O[C@H]1C[C@H](N2CCO[C@H](OC)C2)[C@H](O)[C@H](C)O1 [Nemorubicin] |  |  |  |  |  |  |  |  | 0.31 |

Continued by rising pIC50 ([2]; Homo sapiens, HeLa, 24 h), values first:

| pIC50 ([2]; Homo sapiens, HeLa, 24 h) | pIC50 [2] | SMILES | Difference from 11.55 ppm (ppm) G3NH [1] [ppm] | Difference from 11.22 ppm (ppm) G4NH [1] [ppm] | Difference from 10.86 ppm (ppm) G5NH [1] [ppm] | Difference from 1.58 ppm (ppm) T6CH3 [1] [ppm] | Difference from 7.23 ppm (ppm) T6H6/8 [1] [ppm] | Δδ (ppm) [1] [ppm] | Δδ (ppm) [3] [ppm] |
| --- | --- | --- | --- | --- | --- | --- | --- | --- | --- |
| 4.61 |  | C(=N\CCCN1CCOCC1)/c1c2ccccc2c(/C=N/CCCN2CCOCC2)c2ccccc12 [Compound 2b] | −0.066 | −0.135 | −0.34 | 0.093 | 0.22 | 0.34 |  |
| 4.62 | 4.62 | C(=N\CCN1CCCCC1)/c1c2ccccc2c(/C=N/CCN2CCCCC2)c2ccccc12 [Compound 2d] | −0.03 | −0.07 | −0.13 | 0.094 | 0.16 | 0.13 |  |
| 4.69 |  | Cc1cnc(/N=C/c2c3ccccc3c(/C=N/c3ncc(C)s3)c3ccccc23)s1 [Compound 2e] | −0.056 | −0.11 | −0.24 | 0.146 | 0.19 | 0.24 |  |
